What was measured:
B16 = assay: Ratio of ED50 of compound for B16 melanoma cytotoxicity to that of ED50 of paclitaxel; Relative paclitaxel ED50 = 1.0; format: functional, Mus musculus
Tubulin (Bos taurus) = Tubulin (Bos taurus) (UniProt Q6B856+Q862L2+Q862F3); assay: Ratio of ED50 for microtubule polymerization to ED50 for paclitaxel; Relative paclitaxel ED50 = 1.0; format: functional
P388 = assay: Compound was tested for in vitro cytotoxicity against P388 cells; format: functional, Mus musculus

Row | Ratio (Tubulin (Bos taurus)) | Compound | Ratio (B16) | Activity (P388)
1 | 1.6 | CC(=O)O[C@H]1C(=O)[C@]2(C)[C@@H](O)CC3OC[C@@]3(OC(C)=O)[C@H]2[C@H](OC(=O)c2ccc(C)cc2)[C@]2(O)C[C@H](OC(=O)[C@H](O)[C@@H](NC(=O)c3ccccc3)c3ccccc3)C(C)=C1C2(C)C (some centres not stated) | 5.1 | 
2 | 1.1 | CC(=O)O[C@H]1C(=O)[C@]2(C)[C@@H](O)CC3OC[C@@]3(OC(C)=O)[C@H]2[C@H](OC(=O)c2ccccc2C)[C@]2(O)C[C@H](OC(=O)[C@H](O)[C@@H](NC(=O)c3ccccc3)c3ccccc3)C(C)=C1C2(C)C (some centres not stated) | 0.84 | 
3 | 1.1 | CC(=O)O[C@H]1C(=O)[C@]2(C)[C@@H](O)CC3OC[C@@]3(OC(C)=O)[C@H]2[C@H](OC(=O)c2cccc(Cl)c2)[C@]2(O)C[C@H](OC(=O)[C@H](O)[C@@H](NC(=O)c3ccccc3)c3ccccc3)C(C)=C1C2(C)C (some centres not stated) | 0.57 | 0.81
4 | 3.2 | CC(=O)O[C@H]1C(=O)[C@]2(C)[C@@H](O)CC3OC[C@@]3(OC(C)=O)[C@H]2[C@H](OC(=O)c2ccc(F)cc2)[C@]2(O)C[C@H](OC(=O)[C@H](O)[C@@H](NC(=O)c3ccccc3)c3ccccc3)C(C)=C1C2(C)C (some centres not stated) | >36 | 
5 | 1 | CC(=O)O[C@H]1C(=O)[C@@]2(C)[C@H]([C@H](OC(=O)c3ccccc3)[C@]3(O)C[C@H](OC(=O)[C@H](O)[C@@H](NC(=O)c4ccccc4)c4ccccc4)C(C)=C1C3(C)C)[C@]1(OC(C)=O)CO[C@@H]1C[C@@H]2O [PACLITAXEL] | 1 | 1
6 | 6 | COc1ccc(C(=O)O[C@H]2[C@H]3[C@](C)(C(=O)[C@H](OC(C)=O)C4=C(C)[C@@H](OC(=O)[C@H](O)[C@@H](NC(=O)c5ccccc5)c5ccccc5)C[C@]2(O)C4(C)C)[C@@H](O)CC2OC[C@]23OC(C)=O)cc1 (some centres not stated) | 22 | 

Further lines, the compound ahead of its results:

Row | Compound | Ratio (Tubulin (Bos taurus)) | Ratio (B16) | Activity (P388)
7 | CC(=O)O[C@H]1C(=O)[C@]2(C)[C@@H](O)CC3OC[C@@]3(OC(C)=O)[C@H]2[C@H](OC(=O)c2cccc(C(F)(F)F)c2)[C@]2(O)C[C@H](OC(=O)[C@H](O)[C@@H](NC(=O)c3ccccc3)c3ccccc3)C(C)=C1C2(C)C (some centres not stated) | 0.64 | 2.7 | 
8 | CC(=O)O[C@H]1C(=O)[C@]2(C)[C@@H](O)CC3OC[C@@]3(OC(C)=O)[C@H]2[C@H](OC(=O)c2ccc([N+](=O)[O-])cc2)[C@]2(O)C[C@H](OC(=O)[C@H](O)[C@@H](NC(=O)c3ccccc3)c3ccccc3)C(C)=C1C2(C)C (some centres not stated) | > 8.8 |  | 
9 | CC(=O)O[C@H]1C(=O)[C@]2(C)[C@@H](O)CC3OC[C@@]3(OC(C)=O)[C@H]2[C@H](OC(=O)c2cccc([N+](=O)[O-])c2)[C@]2(O)C[C@H](OC(=O)[C@H](O)[C@@H](NC(=O)c3ccccc3)c3ccccc3)C(C)=C1C2(C)C (some centres not stated) | 1.3 | 0.73 | 
10 | CC(=O)O[C@H]1C(=O)[C@]2(C)[C@@H](O)CC3OC[C@@]3(OC(C)=O)[C@H]2[C@H](OC(=O)c2cc(Cl)cc(Cl)c2)[C@]2(O)C[C@H](OC(=O)[C@H](O)[C@@H](NC(=O)c3ccccc3)c3ccccc3)C(C)=C1C2(C)C (some centres not stated) | 0.98 | 1.8 | 
11 | CC(=O)O[C@H]1C(=O)[C@]2(C)[C@@H](O)CC3OC[C@@]3(OC(C)=O)[C@H]2[C@H](OC(=O)c2cccc(C)c2)[C@]2(O)C[C@H](OC(=O)[C@H](O)[C@@H](NC(=O)c3ccccc3)c3ccccc3)C(C)=C1C2(C)C (some centres not stated) | 1.7 | 1.6 | 
12 | CC(=O)O[C@H]1C(=O)[C@]2(C)[C@@H](O)CC3OC[C@@]3(OC(C)=O)[C@H]2[C@H](OC(=O)c2ccc(Cl)c(Cl)c2)[C@]2(O)C[C@H](OC(=O)[C@H](O)[C@@H](NC(=O)c3ccccc3)c3ccccc3)C(C)=C1C2(C)C (some centres not stated) | 0.45 | 2.7 | 
13 | CC(=O)O[C@H]1C(=O)[C@]2(C)[C@@H](O)CC3OC[C@@]3(OC(C)=O)[C@H]2[C@H](OC(=O)c2ccc(Cl)cc2)[C@]2(O)C[C@H](OC(=O)[C@H](O)[C@@H](NC(=O)c3ccccc3)c3ccccc3)C(C)=C1C2(C)C (some centres not stated) | 0.79 | 3.1 | 
